In ChEMBL document CHEMBL1201862, “PubChem BioAssay data set” (2004):
The source made the active and inactive calls. Unless noted, the rule behind the calls is not given here.

Experiments:
[1] = inhibitors of PGC1a acetylation in cells, dose response, cell-based, cherry-picked samples (AID 720514); assay type: functional;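 also: potency may reflect raised or lowered acetylation signal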
[2] = HT-29 colorectal cell cytotoxicity over time, dose response, HRas target identification project, CellTiter-Glo, multiple timepoints, dry powder (AID 720598); assay type: functional, cell-based
[3] = SR lymphoma cell viability over time, late-stage follow-up, mechanism study for HRAS target identification, CellTiter-Glo ATP luminescence, 8-48 h, dry powder (AID 720608); assay type: functional, cell-based
[4] = LOX IMVI melanoma cell viability loss, dose response, HRAS target identification, CellTiter-Glo ATP luminescence, 8/24/48 h, dry powder (AID 720602); assay type: functional, cell-based
[5] = SNB-75 astrocytoma cell viability loss, late-stage follow-up, mechanism study for HRAS target identification, CellTiter-Glo ATP luminescence, several timepoints, dry powder (AID 720624); assay type: functional, cell-based
[6] = C2C12 myoblast ATP-based viability loss, dose response, cytotoxicity control for HRAS target identification, cell-based, CellTiter-Glo ATP luminescence, 8/24/48 h, dry powder (AID 720603); assay type: functional
[7] = U-251 glioblastoma cell viability loss, dose response, HRAS target identification, Alamar Blue fluorescence, 8/24/48 h, dry powder (AID 720605); assay type: functional, cell-based
[8] = CCRF-CEM leukemia cell viability loss, dose response, HRAS target identification, CellTiter-Glo ATP luminescence, 8/24/48 h, dry powder (AID 720607); assay type: functional, cell-based
[9] = biological target: Metabotropic glutamate receptor 5 (Rattus norvegicus, UniProt P31424); experiment: Identification of a glycine sulfonamide based non-MPEP site positive allosteric potentiator (PAM) of mGlu5 (calcium_assay).; assay type: functional
[10] = biological target: Delta-type opioid receptor (Homo sapiens, UniProt P41143); experiment: Late-stage results from the probe development effort to identify antagonists of OPRK1: fluorescence-based cell-based dose response OPRD1 counterscreen.; assay type: functional
Mu-type opioid receptor = Mu-type opioid receptor (Homo sapiens, UniProt P35372); experiment: Late-stage results from the probe development effort to identify antagonists of OPRK1: luminescence-based cell-based dose response OPRM1 counterscreen.; assay type: functional
[11] = NIH/3T3 fibroblast cytotoxicity, dose response, cytotoxicity control, cell-based, plate reader, dry powder, set 2 (AID 652280); assay type: functional; conditions: NIH3T3
[12] = inhibitors of non-replicating M. tuberculosis, dose response, luciferase, dry powder (AID 651619); assay type: functional; conditions: Mycobacterium tuberculosis
[13] = inhibitors of non-replicating M. tuberculosis, dose response, luciferase, dry powder (AID 651620); assay type: functional; conditions: Mycobacterium tuberculosis
[14] = biological target: Potassium channel subfamily K member 9 (Homo sapiens, UniProt Q9NPC2); experiment: KCNK9 (TASK3) current inhibition by patch clamp, SAR follow-up, selectivity assay for TASK1 (KCNK3) inhibitor project, cell-based, automated electrophysiology (AID 652210); assay type: functional
[15] = biological target: Potassium channel subfamily K member 3 (Homo sapiens, UniProt O14649); experiment: TASK1 (KCNK3) potassium channel inhibitors, SAR follow-up, CHO cells, FluxOR thallium flux (AID 652212); assay type: functional
[16] = biological target: Metabotropic glutamate receptor 7 (Homo sapiens, UniProt Q14831); experiment: mGlu7 positive allosteric modulators, dose response, cell-based, calcium mobilization, Galpha15 (AID 743384); assay type: functional
Sequence of Metabotropic glutamate receptor 7 (Q14831 whole entry): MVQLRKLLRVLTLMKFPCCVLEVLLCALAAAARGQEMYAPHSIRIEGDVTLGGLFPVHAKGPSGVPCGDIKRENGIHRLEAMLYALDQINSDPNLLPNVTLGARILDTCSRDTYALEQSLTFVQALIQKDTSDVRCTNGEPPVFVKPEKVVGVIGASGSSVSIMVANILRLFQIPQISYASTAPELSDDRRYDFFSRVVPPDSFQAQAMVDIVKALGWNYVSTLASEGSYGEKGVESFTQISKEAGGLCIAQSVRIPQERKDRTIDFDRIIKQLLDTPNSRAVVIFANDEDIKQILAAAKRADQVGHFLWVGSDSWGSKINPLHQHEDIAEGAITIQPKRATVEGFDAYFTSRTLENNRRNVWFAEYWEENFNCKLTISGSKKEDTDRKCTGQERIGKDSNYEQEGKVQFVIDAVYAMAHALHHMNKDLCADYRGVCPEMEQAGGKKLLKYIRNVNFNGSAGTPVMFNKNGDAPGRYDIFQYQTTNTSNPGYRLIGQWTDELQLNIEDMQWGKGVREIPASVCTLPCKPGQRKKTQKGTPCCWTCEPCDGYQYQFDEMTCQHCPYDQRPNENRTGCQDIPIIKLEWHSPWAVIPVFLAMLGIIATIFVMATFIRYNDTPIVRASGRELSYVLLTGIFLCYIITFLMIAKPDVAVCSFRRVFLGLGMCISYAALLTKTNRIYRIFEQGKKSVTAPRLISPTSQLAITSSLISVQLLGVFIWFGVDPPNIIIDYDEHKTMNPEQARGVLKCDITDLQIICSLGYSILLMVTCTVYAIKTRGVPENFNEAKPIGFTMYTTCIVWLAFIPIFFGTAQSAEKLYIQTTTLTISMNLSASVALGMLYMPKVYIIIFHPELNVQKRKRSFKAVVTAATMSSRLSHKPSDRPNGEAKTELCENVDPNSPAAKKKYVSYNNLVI

Sequence of Delta-type opioid receptor (P41143 whole entry): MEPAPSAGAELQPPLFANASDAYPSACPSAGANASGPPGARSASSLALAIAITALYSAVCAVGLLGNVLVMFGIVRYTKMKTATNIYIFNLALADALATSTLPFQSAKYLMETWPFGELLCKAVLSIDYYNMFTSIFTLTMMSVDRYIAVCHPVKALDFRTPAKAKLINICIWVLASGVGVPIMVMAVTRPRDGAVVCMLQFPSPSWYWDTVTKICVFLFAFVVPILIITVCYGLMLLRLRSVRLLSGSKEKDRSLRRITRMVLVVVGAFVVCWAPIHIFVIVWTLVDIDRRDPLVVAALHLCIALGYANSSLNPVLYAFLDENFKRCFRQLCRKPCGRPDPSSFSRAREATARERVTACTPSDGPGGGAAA
Sequence of Potassium channel subfamily K member 9 (Q9NPC2 whole entry): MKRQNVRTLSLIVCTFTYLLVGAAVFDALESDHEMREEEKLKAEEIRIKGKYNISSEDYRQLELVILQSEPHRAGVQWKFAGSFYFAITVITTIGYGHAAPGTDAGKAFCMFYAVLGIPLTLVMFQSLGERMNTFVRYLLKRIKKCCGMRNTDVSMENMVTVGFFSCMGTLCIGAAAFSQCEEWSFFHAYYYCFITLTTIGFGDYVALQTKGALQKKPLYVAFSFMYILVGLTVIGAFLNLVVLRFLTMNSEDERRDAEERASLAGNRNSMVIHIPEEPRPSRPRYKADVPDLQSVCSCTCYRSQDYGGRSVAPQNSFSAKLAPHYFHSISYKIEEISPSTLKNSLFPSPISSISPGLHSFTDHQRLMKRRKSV
Sequence of Potassium channel subfamily K member 3 (O14649 whole entry): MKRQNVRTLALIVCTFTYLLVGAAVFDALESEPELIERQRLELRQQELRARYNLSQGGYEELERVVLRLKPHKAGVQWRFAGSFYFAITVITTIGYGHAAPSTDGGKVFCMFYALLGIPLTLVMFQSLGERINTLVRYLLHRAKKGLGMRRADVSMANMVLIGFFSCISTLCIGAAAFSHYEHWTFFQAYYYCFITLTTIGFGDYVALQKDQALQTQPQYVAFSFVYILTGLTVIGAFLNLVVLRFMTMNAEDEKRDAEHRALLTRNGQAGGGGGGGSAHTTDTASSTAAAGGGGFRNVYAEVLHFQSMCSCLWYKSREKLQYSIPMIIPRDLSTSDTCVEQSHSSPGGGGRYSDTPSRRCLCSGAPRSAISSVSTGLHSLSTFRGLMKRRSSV
Sequence of Mu-type opioid receptor (P35372 whole entry): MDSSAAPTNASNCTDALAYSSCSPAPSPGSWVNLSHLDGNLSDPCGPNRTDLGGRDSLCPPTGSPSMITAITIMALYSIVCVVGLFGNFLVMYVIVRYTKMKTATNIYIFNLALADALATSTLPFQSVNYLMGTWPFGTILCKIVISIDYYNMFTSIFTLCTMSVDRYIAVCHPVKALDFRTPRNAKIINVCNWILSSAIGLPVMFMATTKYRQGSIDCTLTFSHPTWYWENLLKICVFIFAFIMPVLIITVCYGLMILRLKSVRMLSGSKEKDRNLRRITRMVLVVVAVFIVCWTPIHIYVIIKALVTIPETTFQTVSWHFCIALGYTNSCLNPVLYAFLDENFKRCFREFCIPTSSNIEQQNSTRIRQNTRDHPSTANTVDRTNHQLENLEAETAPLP
Sequence of Metabotropic glutamate receptor 5 (P31424 whole entry): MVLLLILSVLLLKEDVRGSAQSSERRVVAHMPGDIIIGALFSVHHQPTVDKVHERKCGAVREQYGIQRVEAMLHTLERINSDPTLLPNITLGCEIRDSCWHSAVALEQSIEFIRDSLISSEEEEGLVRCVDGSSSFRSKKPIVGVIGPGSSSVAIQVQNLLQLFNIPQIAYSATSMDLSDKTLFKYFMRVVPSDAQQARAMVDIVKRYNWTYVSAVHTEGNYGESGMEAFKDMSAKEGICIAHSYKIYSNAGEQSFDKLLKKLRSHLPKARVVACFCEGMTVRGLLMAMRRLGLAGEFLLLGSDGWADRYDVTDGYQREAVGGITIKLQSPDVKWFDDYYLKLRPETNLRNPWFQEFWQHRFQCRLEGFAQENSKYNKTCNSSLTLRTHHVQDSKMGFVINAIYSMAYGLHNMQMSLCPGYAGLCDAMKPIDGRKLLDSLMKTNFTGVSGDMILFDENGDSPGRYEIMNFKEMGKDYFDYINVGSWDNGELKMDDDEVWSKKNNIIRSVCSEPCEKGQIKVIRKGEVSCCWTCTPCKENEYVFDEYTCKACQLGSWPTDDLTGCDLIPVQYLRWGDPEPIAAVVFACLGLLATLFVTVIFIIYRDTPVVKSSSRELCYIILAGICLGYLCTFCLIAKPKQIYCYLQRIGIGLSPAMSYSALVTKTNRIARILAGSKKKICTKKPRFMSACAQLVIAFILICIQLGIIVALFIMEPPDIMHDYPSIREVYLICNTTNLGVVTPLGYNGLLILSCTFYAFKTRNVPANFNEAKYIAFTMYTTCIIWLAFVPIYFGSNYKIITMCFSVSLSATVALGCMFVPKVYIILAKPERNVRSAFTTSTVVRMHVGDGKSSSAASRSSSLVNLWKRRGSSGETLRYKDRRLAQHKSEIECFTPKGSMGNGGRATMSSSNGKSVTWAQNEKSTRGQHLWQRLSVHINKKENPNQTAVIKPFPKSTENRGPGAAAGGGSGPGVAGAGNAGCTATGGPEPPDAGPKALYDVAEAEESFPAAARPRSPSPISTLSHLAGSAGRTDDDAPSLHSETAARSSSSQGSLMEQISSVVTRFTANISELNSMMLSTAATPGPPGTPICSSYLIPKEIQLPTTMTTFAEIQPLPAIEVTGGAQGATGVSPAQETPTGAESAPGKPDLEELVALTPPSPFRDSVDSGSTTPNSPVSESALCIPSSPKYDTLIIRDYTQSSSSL

**Q.** Which AC50 [1] does the source give for `COC(=O)[C@@]1(Cc2ccccc2CN=[N+]=[N-])N=C(c2ccc(OCCCO)cc2)O[C@H]1c1ccccc1` here?
**A.** The AC50 was 17400 nM (active).

**Q.** For `COC(=O)c1ccc([C@@H]2c3[nH]c4ccccc4c3C[C@@H](C(=O)OC)N2C(=O)CCl)cc1`, which AC50 [2] is on record?
**A.** Its AC50 is 235 nM (active).

**Q.** What about the AC50 [3] of the same compound?
**A.** The AC50 was 49.2 nM (active).

**Q.** What about the AC50 [4] of the same compound?
**A.** Its AC50 is 70.9 nM (active).

**Q.** And the AC50 [5]?
**A.** Its AC50 is 374 nM (active).

**Q.** And the AC50 [6]?
**A.** The AC50 was 233 nM (active).

**Q.** And the AC50 [7]?
**A.** Its AC50 is 34.2 nM (active).

**Q.** What about the AC50 [8] of the same compound?
**A.** The AC50 was 105 nM (active).

**Q.** With `CC(C(=O)Nc1ccccn1)N(c1ccccc1Cl)S(C)(=O)=O` (configuration not stated) as the compound, how does the EC50 [9] read?
**A.** Its EC50 is 10000 nM (inconclusive).

**Q.** Which IC50 [10] does the source give for `COC(=O)c1cc(Br)cnc1N1CCC(NC2CCCCC2)CC1` here?
**A.** The IC50 was 19000 nM (inactive).

**Q.** And the IC50 (Mu-type opioid receptor)?
**A.** The IC50 was 1000 nM (active).

**Q.** Which AC50 [11] does the source give for `Cc1cccc(-c2ccc([C@H]3[C@H](CO)N4CCCCN(CCC(F)(F)F)C[C@@H]34)cc2)c1` here?
**A.** Its AC50 is 3670 nM (active).

**Q.** With `CCSc1nnc(-c2ccccc2)o1` as the compound, how does the IC90 [12] read?
**A.** The IC90 was 31000 nM (active).

**Q.** And the IC90 [13]?
**A.** The IC90 was 31000 nM (active).

**Q.** What does the source list for `COc1ccccc1C(=O)Nc1cc(NC(=O)c2ccccc2C(C)C)ccc1F`?
**A.** IC50 [14]: 710 nM (active); IC50 [15]: 109 nM (active)

**Q.** For `CC(=O)Nc1ccc(SCC(=O)c2cc(C)n(CC3CCCO3)c2C)cc1` (configuration not stated), which EC50 [16] is on record?
**A.** Its EC50 is 4800 nM (active).
